Measured values reported in ChEMBL document CHEMBL4130536, “Deinococcucins A-D, Aminoglycolipids from Deinococcus sp., a Gut Bacterium of the Carpenter Ant Camponotus japonicus” (J Nat Prod, 2017).

Key:
SNU-638 = experiment: Cytotoxicity in human SNU638 cells assessed as reduction in cell viability incubated for 72 hrs by SRB assay; format: functional, cell-based; settings: SNU-638, 72 h
Escherichia coli = experiment: Antimicrobial activity against Escherichia coli incubated for 24 hrs; format: functional
Salmonella enterica = experiment: Antimicrobial activity against Salmonella enterica incubated for 24 hrs; format: functional
K562 = experiment: Cytotoxicity in human K562 cells assessed as reduction in cell viability incubated for 72 hrs by SRB assay; format: functional, cell-based; settings: K562, 72 h
Aspergillus fumigatus = experiment: Antimicrobial activity against Aspergillus fumigatus incubated for 24 hrs; format: functional
Bacillus subtilis = experiment: Antimicrobial activity against Bacillus subtilis incubated for 24 hrs; format: functional
MDA-MB-231 = experiment: Cytotoxicity in human MDA-MB-231 cells assessed as reduction in cell viability incubated for 72 hrs by SRB assay; format: functional, cell-based; settings: MDA-MB-231, 72 h
SK-HEP1 = experiment: Cytotoxicity in human SKHEP1 cells assessed as reduction in cell viability incubated for 72 hrs by SRB assay; format: functional, cell-based; settings: SK-HEP1, 72 h
A549 = experiment: Cytotoxicity in human A549 cells assessed as reduction in cell viability incubated for 72 hrs by SRB assay; format: functional, cell-based; settings: A549, 72 h
HCT-116 = experiment: Cytotoxicity in human HCT116 cells assessed as reduction in cell viability incubated for 72 hrs by SRB assay; format: functional, cell-based; settings: HCT-116, 72 h
Proteus hauseri = experiment: Antimicrobial activity against Proteus hauseri incubated for 24 hrs; format: functional
Candida albicans = experiment: Antimicrobial activity against Candida albicans incubated for 24 hrs; format: functional
Staphylococcus aureus = experiment: Antimicrobial activity against Staphylococcus aureus incubated for 24 hrs; format: functional
Kocuria rhizophila = experiment: Antimicrobial activity against Kocuria rhizophila incubated for 24 hrs; format: functional
[1] = Toxicity in mouse Hepa1c1c7 cells at 2.5 to 20 uM; format: cell-based

MIC (Escherichia coli)	MIC (Salmonella enterica)	MIC (Aspergillus fumigatus)	MIC (Bacillus subtilis)	MIC (Proteus hauseri)	MIC (Candida albicans)	MIC (Staphylococcus aureus)	MIC (Kocuria rhizophila)	SMILES	IC50 (SNU-638)	IC50 (K562)	IC50 (MDA-MB-231)	IC50 (SK-HEP1)	IC50 (A549)	IC50 (HCT-116)	Activity [1]
> 128 µM	> 128 µM	> 128 µM	> 128 µM	> 128 µM	> 128 µM	> 128 µM	> 128 µM	CCCCCCCCCCCCCCCCCNC(=O)[C@H](O)CO[C@H]1O[C@H](CO)[C@@H](O)[C@H](O)[C@H]1NC(C)=O	> 10 µM	> 10 µM	> 10 µM	> 10 µM	> 10 µM	> 10 µM	–
> 128 µM	> 128 µM	> 128 µM	> 128 µM	> 128 µM	> 128 µM	> 128 µM	> 128 µM	CCCCCCC/C=C\CCCCCCCCNC(=O)[C@H](O)CO[C@H]1O[C@H](CO)[C@@H](O)[C@H](O)[C@H]1NC(C)=O	> 10 µM	> 10 µM	> 10 µM	> 10 µM	> 10 µM	> 10 µM	–
> 128 µM	> 128 µM	> 128 µM	> 128 µM	> 128 µM	> 128 µM	> 128 µM	> 128 µM	CCCCCCCCCCCCCCCCNC(=O)[C@H](O)CO[C@H]1O[C@H](CO)[C@@H](O)[C@H](O)[C@H]1NC(C)=O	> 10 µM	> 10 µM	> 10 µM	> 10 µM	> 10 µM	> 10 µM	Non-Toxic
> 128 µM	> 128 µM	> 128 µM	> 128 µM	> 128 µM	> 128 µM	> 128 µM	> 128 µM	CCCCCC/C=C\CCCCCCCCNC(=O)[C@H](O)CO[C@H]1O[C@H](CO)[C@@H](O)[C@H](O)[C@H]1NC(C)=O	> 10 µM	> 10 µM	> 10 µM	> 10 µM	> 10 µM	> 10 µM	Non-Toxic
